Key:
primary white adipocytes [1] = experiment: Cellular oxygen consumption rate (XF24 Extracellular Flux Analyzer, Seahorse) of primary adipocytes; type: cell-based, mouse; settings: for uncoupled respiration and maximal respiration potential: 24 hour treatment, norepinephrine 100 nM, peptides 100 ng/mL, SeaHorse (FIG. 8D)
Description: The cellular oxygen consumption rate (OCR) of primary adipocytes was determined using an XF24 Extracellular Flux Analyzer (Seahorse Bioscience). […] Twenty-four hours later, adipocyte culture medium was changed to DMEM lacking NaHCO3 but containing 10 mM glucose, 1 mM pyruvate and the treatment chemicals. The uncoupled and maximal OCRs were determined using […] (carbonyl cyanide p-trifluoromethoxyphenylhydrazone), respectively. Complex-1-dependent respiration was inhibited with 3 μM rotenone. Ex vivo tissue respiration was measured using a Clark electrode (Strathkelvin Instruments) as described in Cohen et al. (2014) Cell 156:304-316. Freshly isolated tissues were briefly minced and transferred to the electrode chamber containing a respiration buffer consisting of 1×DPBS (Delbecco's phosphate-buffered saline), 2% BSA, 25 mM glucose and 1 mM pyruvate. Oxygen consumption values were normalized to tissue weight.

primary white adipocytes [2] = experiment: Thermogenic gene expression (qRT-PCR) in primary white adipocytes; type: cell-based, mouse; settings: for thermogenic effects (thermogenic gene expression): 1 μg/ml, 4 hours, primary white adipocytes (FIG. 8A-8C)
Description: Inguinal SV fractions were obtained from 30-35 days-old male mice by the following procedure. Inguinal fat tissue was dissected, washed with PBS, minced and digested for 45 min at 37° C. in PBS containing 10 mM CaCl, 2.4 U/mL dispase II (Roche), and 1.5 U/mL collagenase D (Roche). Digested tissue was filtered through a 100-μm cell strainer and centrifuged at 600 g for 5 min to pellet the SV cells which were then resuspended in SV culture medium (DMEM/F12 [1:1; Invitrogen] plus glutamax, pen/strep, and 10% FBS), filtered through a 40-μm cell strainer, centrifugation as above, resuspended in SV culture medium and plated. SV cells were grown to confluency for adipocyte differentiation which was induced by the adipogenic cocktail containing 1 μM dexamethasone, 5 μg/mL insulin, […] isobutylmethylxanthine (DMI), and 1 μM rosiglitazone in SV culture medium. 2 days after induction, cells were maintained in SV culture medium containing 5 μg/mL insulin and 1 μM rosiglitazone. Starting at day 6, cells were maintained in SV culture medium only and treated with various molecules for […] and harvested at day 8.
LLC cells were maintained in DMEM (Invitrogen) with 10% FBS and pen/strep. For conditioned media collection, cells were plated at ⅓ confluency. The following day, medium is changed to FreeStyle expression medium (Invitrogen) which was collected 24 hours later. For concentration of expression medium, LLC conditioned media was filtered using a 3 kilodalton (Kd) cut-off filter (Millipore). Adipocytes were maintained in SV culture media (DMEM/F12 [1:1; Invitrogen] plus glutamax, pen/strep, and 10% FBS) and conditioned media treatment experiments were performed 7 days post-differentiation. When adipocytes were treated with conditioned media for 24 hours, the treatment media were composed of 50% SV culturing medium and 50% LLC conditioned media. When conditioned medium was filtered and concentrated, adipocytes were exposed to 90% SV culturing medium and 10% concentrated LLC conditioned media.
RNA was extracted from cultured cells or frozen tissue samples using TRIzol (Invitrogen), purified with Qiagen RNAeasy minicolums and reverse transcribed using High Capacity cDNA Reverse Transcription kit (Applied Biosystems). Resulting cDNA was analyzed by RT-qPCR. Briefly, 25 ng of cDNA and […] of each primer were mixed with SYBR® GreenER™ PCR Master Mix (Invitrogen). Reactions were performed in 384-well format using an ABI PRISM® 7900HT instrument (Applied Biosystems). Relative mRNA levels were calculated using the comparative CT method normalized to cyclophilin.
Inguinal stroma-vascular fractions were obtained from 30-35-day-old male mice using the following procedure: Inguinal fat tissue was dissected, washed with PBS, minced and digested for 45 min at 37° C. in PBS containing 10 mM CaCl2, 2.4 Uml^−1 dispase 11 (Roche) and 1.5 U ml^−1 collagenaseD (Roche). Digested tissue was filtered through a 100-μm cell strainer and centrifuged at 600 g for 5 min to pellet the stroma-vascular cells. The pellets were then resuspended in adipocyte culture medium (DMEM/F2 (1:1, Invitrogen) plus GlutaMAX, penicillin and streptomycin, and 10% FBS), filtered through a 40-μm cell strainer, centrifuged as above, resuspended in adipocyte culture medium and plated. The stroma-vascular cells were grown to confluence for adipocyte differentiation, which was induced by an adipogenic cocktail containing 1 μM dexamethasone, 5 μg ml^−1 insulin, […] isobutylmethylxanthine (DMI) and 1 μM rosiglitazone in adipocyte culture medium. Two days after induction, cells were maintained in adipocyte culture medium containing 5 μg ml^−1 insulin and 1 μM rosiglitazone. Starting on day 6, cells were maintained in adipocyte culture medium only and treated with various molecules for 2-24 h and harvested on day 8.
LLC cells were maintained in DMEM (Invitrogen) with 10% FBS, and penicillin and streptomycin. For conditioned medium collection, cells were plated at a 1:3 confluence.

PTH1R = molecular target: T1, PTH1R (Homo sapiens, UniProt Q03431); settings: cited from earlier work
T1 sequence (Q03431 27-593): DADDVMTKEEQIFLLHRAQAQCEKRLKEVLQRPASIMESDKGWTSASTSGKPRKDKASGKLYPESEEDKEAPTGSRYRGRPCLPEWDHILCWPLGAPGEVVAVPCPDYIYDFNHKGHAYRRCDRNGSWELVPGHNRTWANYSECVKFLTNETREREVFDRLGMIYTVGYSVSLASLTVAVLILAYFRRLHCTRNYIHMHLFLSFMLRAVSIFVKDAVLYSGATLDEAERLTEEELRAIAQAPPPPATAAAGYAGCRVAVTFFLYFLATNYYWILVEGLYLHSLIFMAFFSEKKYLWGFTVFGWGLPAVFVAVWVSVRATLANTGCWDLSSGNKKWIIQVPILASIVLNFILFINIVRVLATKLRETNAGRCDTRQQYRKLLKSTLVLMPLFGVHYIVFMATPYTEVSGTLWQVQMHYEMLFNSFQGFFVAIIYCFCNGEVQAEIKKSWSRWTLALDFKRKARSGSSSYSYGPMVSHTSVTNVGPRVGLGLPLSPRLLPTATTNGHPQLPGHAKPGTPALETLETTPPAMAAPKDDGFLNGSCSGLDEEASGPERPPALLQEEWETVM

Substance: PTH (1-34): Synthetic peptide rat PTH(1-34) (Ala32-Phe65; Catalog No. H-5460), purchased from Bachem
- oxygen consumption, including basal, uncoupled and maximal respiration (primary white adipocytes [1]; 100 nM NE, 100 ng ml^−1 PTHrP or PTH, 24 h (FIG. 23C)): significantly raised oxygen consumption
- uncoupled respiration and maximal respiration potential (primary white adipocytes [1]): significantly elevate
- uncoupled respiration and maximal respiration potential (primary white adipocytes [1]; listed as PTH): powerful inducers
- thermogenic gene expression (primary white adipocytes [2]; 100 ng ml^−1 peptide, 2 h, primary white adipocytes (FIG. 21B)): stimulated thermogenic gene expression
- thermogenic effects (thermogenic gene expression) (primary white adipocytes [2]): thermogenic effects
- thermogenic effects (thermogenic gene expression) (primary white adipocytes [2]; listed as PTH): powerful inducers of thermogenic gene expression
- duration of cAMP signal after ligand wash-out (PTH1R; Dean et al. (2008)): longer lasting cAMP signal
- potency for activating cAMP signaling (PTH1R; Juppner et al. (1991)): equally potent for activating cAMP signaling
